Data set [1] is described as follows: Single oral dose safety and pharmacokinetic study in NASH and healthy subjects. The class given is in vivo, human. Here is the method:
The present Example was a randomized, dose ranging, single dose safety and pharmacokinetic study of 25HC3S administered to subjects with NASH and control healthy subjects. […] For each cohort, 10 subjects with NASH were enrolled which were further classified into cirrhotic and non-cirrhotic. Each subject received only one dose of study treatment. The second cohort was dosed after a review of safety and tolerability data from Cohort 1.

Data set [2] can be described thus: Metabolite profiling of plasma and feces after oral dose. The note with it: 75 mg/kg oral. The class given is in vivo, rats. The source says: Radiolabeled components in plasma and feces extracts were profiled and identified using radio-high performance liquid chromatography (HPLC) and high performance liquid chromatography/mass spectrometry (HPLC/MS) methods.

Data set [3] can be described thus: Metabolite profiling of plasma, urine and feces after intravenous dose. Type of data set: in vivo, male Sprague Dawley rats. The note with it: intravenous 10 mg/kg. Here is the method: (§1) Nine male Sprague Dawley rats (Group 1) were designated for the pharmacokinetic phase, 3 male Sprague Dawley rats (Group 2) for the excretion mass balance phase, and 7 male Sprague Dawley rats (Group 3) and 9 male Long Evans rats (Group 4) for the tissue distribution phase. All animals received a single intravenous dose of [^14C]-25HC3S at 10 mg/kg and a target radioactivity of 225 μCi/kg. Blood samples were collected from all Group 1 animals at approximately 0.083, 0.25, 0.5, 1, 2, 4, 8, 12, 24, 48, and 72 hours post-dose. Urine and feces were collected from all Group 2 animals periodically through 168 hours post-dose. […] Following blood collection, animals were euthanized by CO2 inhalation and carcasses frozen in a dry ice/hexane bath for processing by quantitative whole body autoradiography. Whole blood, plasma, urine, feces, cage rinse, and cage wash were analyzed for total radioactivity by liquid scintillation counting.

Data set [4] in a line: Plasma pharmacokinetics of radioactivity after single oral (gavage) dose. Particulars: 75 mg/kg single oral (gavage). The class given is in vivo, rats.
A short description of data set [5]: Excretion mass balance after single oral (gavage) dose. Type of data set: in vivo, rats. Particulars: 75 mg/kg single oral (gavage).
A short description of data set [6]: Tissue distribution by quantitative whole body autoradiography after single oral (gavage) dose. The class given is in vivo, male Sprague Dawley rats. Particulars: 75 mg/kg oral.
Data set [7] in a line: Excretion mass balance after single intravenous dose. The class given is in vivo, male Sprague Dawley rats. Particulars: 10 mg/kg intravenous, over 168 hours.
Description: (§2) The objectives of this study were to determine the plasma pharmacokinetics of [4-^14C]-25HC3S-derived radioactivity in male Sprague Dawley rats, determine the routes of elimination and excretion mass balance of [4-^14C]-25HC3S-derived radioactivity in male Sprague Dawley rats, determine the tissue distribution and tissue pharmacokinetics of [4-^14C]-25HC3S-derived radioactivity using quantitative whole body autoradiography methods in male Sprague Dawley and Long Evans rats following a single intravenous (bolus) dose, and to provide plasma, urine, and fecal homogenate samples for metabolite profiling of [4-^14C]-25HC3S-derived radioactivity.
as §1, with “μCi/kg.” for “μCi/kg. Blood samples were collected from all Group 1 animals at approximately 0.083, 0.25, 0.5, 1, 2, 4, 8, 12, 24, 48, and 72 hours post-dose. Urine and feces were collected from all Group 2 animals periodically through 168 hours post-dose.”

Data set [8] in a line: Plasma pharmacokinetics of radioactivity after single intravenous dose. Type of data set: in vivo, male Sprague Dawley rats. The note with it: 10 mg/kg single intravenous (bolus).
Description: as §2, §1

The nature of data set [9]: Tissue distribution by quantitative whole body autoradiography after single intravenous dose. The class given is in vivo, male Sprague Dawley rats. Particulars: 10 mg/kg intravenous.
Description: as §2, §1

The nature of data set [10]: Tissue distribution by quantitative whole body autoradiography after single intravenous dose, pigmented rats. The class given is in vivo, male Long Evans rats. The note with it: 10 mg/kg intravenous.
Description: as §2
as §1, with “μCi/kg.” for “μCi/kg. Blood samples were collected from all Group 1 animals at approximately 0.083, 0.25, 0.5, 1, 2, 4, 8, 12, 24, 48, and 72 hours post-dose. Urine and feces were collected from all Group 2 animals periodically through 168 hours post-dose.”

The mark [11] stands for this setting: 50 mg single oral dose, Healthy, Geometric Mean.
The mark [12] stands for this setting: 50 mg single oral dose, Healthy, Mean.
Setting [13] is: 50 mg single oral dose, NASH, Geometric Mean.
The mark [14] stands for this setting: 50 mg single oral dose, NASH, Mean.
Where [15] appears, read: 200 mg single oral dose, Healthy, Geometric Mean.
Where [16] appears, read: 200 mg single oral dose, Healthy, Mean.
[17] abbreviates: 200 mg single oral dose, NASH, Geometric Mean.
Setting [18] is: 200 mg single oral dose, NASH, Mean.

A word on the CL/F: it is clearance divided by bioavailability, as obtained after extravascular dosing. The Cmax is the maximum level reached in the sampled fluid or tissue. As a reminder, the Tmax is the time from dosing to the highest level.

For the molecule `C[C@H](CCCC(C)(C)O)[C@H]1CC[C@H]2[C@@H]3CC=C4C[C@@H](OS(=O)(=O)[O-])CC[C@]4(C)[C@H]3CC[C@]12C.[Na+]` [25HC3S sodium], the AUC0-12 in data set [1] (setting [11]) came out at 496.7 ng·h/mL; in [1] (setting [12]), 528.0 ng·h/mL; in [1] (setting [13]), 597.8 ng·h/mL; in data set [1] (setting [14]), 623.1 ng·h/mL; in data set [1] (setting [15]) it was 1162.8 ng·h/mL; in data set [1] (setting [16]), 1175.9 ng·h/mL. The AUC0-12 was 1495.2 ng·h/mL in data set [1] (setting [17]) and 1541.0 ng·h/mL in data set [1] (setting [18]). Also, the AUC0-last in [1] (setting [11]) turned out to be 450.0 ng·h/mL; in [1] (setting [12]) it was 477.1 ng·h/mL; in data set [1] (setting [13]), 476.1 ng·h/mL; in [1] (setting [14]), 513.3 ng·h/mL; in [1] (setting [15]), 1172.5 ng·h/mL; in data set [1] (setting [16]), 1185.7 ng·h/mL. Also, the AUC0-last in data set [1] (setting [17]) stood at 1539.2 ng·h/mL; in [1] (setting [18]), 1581.6 ng·h/mL. Also, the AUCinf in [1] (setting [11]) amounted to 423.3 ng·h/mL; in data set [1] (setting [12]), 438.6 ng·h/mL; in data set [1] (setting [13]), 608.3 ng·h/mL; in data set [1] (setting [14]) it was 636.1 ng·h/mL; in data set [1] (setting [15]), 1181.2 ng·h/mL; in data set [1] (setting [16]) it was 1194.3 ng·h/mL. In addition, the AUCinf in data set [1] (setting [17]) was found to be 1411.8 ng·h/mL; in data set [1] (setting [18]), 1428.5 ng·h/mL. Also, the CL/F in [1] (setting [11]) was 118.11 L/h; in data set [1] (setting [12]) it was 122.35 L/h; in data set [1] (setting [13]) it was 82.19 L/h; in data set [1] (setting [14]) it was 85.29 L/h; in [1] (setting [15]), 169.32 L/h; in [1] (setting [16]), 171.25 L/h. The CL/F in data set [1] (setting [17]) was 141.66 L/h; in data set [1] (setting [18]), 143.19 L/h. In addition, the Cmax in [1] (setting [11]) amounted to 90.946 ng/mL; in data set [1] (setting [12]) it was 93.967 ng/mL; in [1] (setting [13]), 107.627 ng/mL; in [1] (setting [14]), 113.170 ng/mL; in data set [1] (setting [15]), 255.698 ng/mL; in data set [1] (setting [16]), 260.500 ng/mL. Moreover, the Cmax in data set [1] (setting [17]) turned out to be 318.582 ng/mL; in data set [1] (setting [18]), 332.700 ng/mL. In addition, the T1/2 was determined as 1.889 h in data set [1] (setting [11]); 1.906 h in data set [1] (setting [12]); 1.670 h in [1] (setting [13]); 1.674 h in data set [1] (setting [14]); 1.719 h in data set [1] (setting [15]); 1.753 h in [1] (setting [16]). Besides, the T1/2 in [1] (setting [17]) was found to be 2.196 h; in data set [1] (setting [18]), 2.511 h. The Tmax stood at 2.834 h in data set [1] (setting [11]); 3.008 h in data set [1] (setting [12]); 2.305 h in data set [1] (setting [13]); 2.408 h in data set [1] (setting [14]); 2.528 h in data set [1] (setting [15]); 2.673 h in data set [1] (setting [16]). Further, the Tmax is listed as 2.647 h in data set [1] (setting [17]) and 2.906 h in [1] (setting [18]).

In the case of `C[C@H](CCCC(C)(C)O)[C@H]1CC[C@H]2[C@@H]3CC=C4C[C@@H](O)CC[C@]4(C)[C@H]3CC[C@]12C` [M29, 25-hydroxycholesterol], the “relative observed intensity (ROI) in plasma” value in data set [2] (2 hour postdose plasma) amounted to 37%. In [2] (pools 0 to 168 hours post-dose), the “% of total dose in feces” value is 1.9 % of total dose. Further, the concentration at 2 h in [2] (Sprague Dawley, rat, 2 hour postdose plasma) is 1230 ng/g. Besides, the “detection in plasma, urine, or feces samples” value in [3] is “Neither desmosterol sulfate nor 25-hydroxycholesterol was detected”.

On to `C[C@H](CCCC(C)(C)O)[C@H]1CC[C@H]2[C@@H]3CC=C4CC(OS(=O)(=O)O)CC[C@]4(C)[C@H]3CC[C@]12C` (stereo partly shown) [[^14C]-25HC3S], for which the “terminal elimination phase T1/2” value in [4] was determined as 27.3 h. The “plasma AUClast” value in [4] (radioactivity) was 96,400 h.ng equiv./g. Besides, in data set [5], the “dose recovered in urine, feces, and cage rinse” value is “approximately 94.5%”; the “recovered radioactivity in feces” value is on record as 94.2%. Moreover, in data set [6], the “plasma:whole blood AUClast ratio” value is on record as 1.12; the “skin, thymus, prostate, and pituitary tissue concentrations” value is on record as below 3000 ng equiv./g; the “tissue Tmax” value was at most 6 h; the “tissue distribution by QWBA” value was “broadly distributed and detected by quantitative whole body autoradiography in all tissues except the eye (lens)”. Moreover, in data set [6], the “uveal tract and brain concentrations” value is listed as “approximately 1000 ng equiv./g”; the “whole blood AUClast” value is recorded as 127,000 h.ng equiv./g. In data set [6] (calculated using AUClast), the “tissue:plasma ratio, adrenal gland” value was 6.64; the “tissue:plasma ratio, liver” value is 6.96; the “tissue:plasma ratio, small intestine (wall)” value was 15.4.

As to `C[C@H](CCCC(C)(C)O)[C@H]1CC[C@H]2[C@@H]3CC=C4[14CH2][C@@H](OS(=O)(=O)O)CC[C@]4(C)[C@H]3CC[C@]12C` [[4-^14C]-25HC3S], in data set [7], the “dose recovered in urine, feces, and cage rinse” value is listed as “approximately 100.2%”; the “recovered radioactivity in feces” value stood at 83.0%. For the same molecule, the “terminal elimination phase T1/2” value in data set [8] (plasma, PK phase) came out at 26.6 h. Besides, in data set [8] (total radioactivity), the “mean plasma C0” value is recorded as 25,900 ng-equiv./g and the “plasma AUClast” value is given as 27,900 h*ng-equiv./g. For the same molecule, in [9], the “plasma:whole blood AUClast ratio” value was determined as 0.79; the “tissue distribution by QWBA” value is “broadly distributed and detected by quantitative whole body autoradiography in all tissues except the eye (lens)”. The “whole blood AUClast” value in data set [9] (Group 3) is 25,200 h*ng-equiv./g. Further, in [9] (QWBA phase), the T1/2 in plasma was determined as 44.3 h, the “T1/2 in whole blood” value worked out at 52.2 h and the maximum plasma concentration is on record as 12,400 ng-equiv./g. Moreover, in [9] (calculated using AUClast), the “tissue:plasma ratio, liver” value is reported as 11.4 and the “tissue:plasma ratio, small intestine (wall)” value is on record as 7.44. The AUClast in liver in [9] (radioactivity) is recorded as ≤ 364,000 hng/g. Besides, the “binding to pigmented or non-pigmented skin or the uveal tract” value in data set [10] is “no difference”. Besides, the “plasma or whole blood concentrations versus Sprague Dawley rats” value in [10] (first 168 hours postdose) is listed as “no substantial difference”.

As to desmosterol sulfate, the “detection in plasma or feces samples” value in [2] is reported as “not found”. For the same molecule, in [3], the “detection in plasma, urine, or feces samples” value is listed as “Neither desmosterol sulfate nor 25-hydroxycholesterol was detected”.

(Values after US20230181601A1, “TREATMENT OF NON-ALCOHOLIC STEATOHEPATITIS (NASH)” (DURECT CORPORATION, priority 2020, published 2023).)
